In BindingDB's records for doi:10.1021/jm300025r (Astrazeneca, 2012) one finds EC50 data, which are given here for 20 molecules.

A short description of assay [1]: Inhibition of CHK1 in human HT29 cells assessed as check point abrogation.
Assay [2] in a line: Inhibition of CHK1 in human HT29 cells assessed as abrogation of camptothecin induced check point.

The EC50 is the concentration giving half of the maximal effect.

In the case of `N#Cc1cccc(-c2cc(NC(N)=O)c(C(=O)N[C@H]3CCCNC3)s2)c1`, the EC50 in assay [1] came out at 1900 nM; in assay [2] it was 40 nM.

Turning to `N#Cc1cccc(-c2cc(C(=O)N[C@H]3CCCNC3)c(NC(N)=O)s2)c1`, the figures for the EC50 in assay [1] and in assay [2] were > 13000 nM and 940 nM, respectively.

As for `N#Cc1ccc(-c2cc(NC(N)=O)c(C(=O)N[C@H]3CCCNC3)s2)cc1`, the EC50 in assay [1] was 600 nM; in assay [2], 30 nM.

Turning to `NC(=O)Nc1cc(-c2ccc(Cl)c(Cl)c2)sc1C(=O)N[C@H]1CCCNC1`, the concentration for a half-maximal effect (EC50) was found to be 5800 nM in assay [1] and 200 nM in assay [2].

On to `NC(=O)Nc1sc(-c2ccc(Cl)c(Cl)c2)cc1C(=O)N[C@H]1CCCNC1`, for which the EC50 in assay [1] amounted to 5700 nM; in assay [2], 150 nM.

With `NC(=O)Nc1cc(-c2ccc(F)cc2F)sc1C(=O)N[C@H]1CCCNC1`, the EC50 in assay [1] worked out at 1100 nM; in assay [2] it was 20 nM.

Take `NC(=O)Nc1sc(-c2ccc(F)cc2F)cc1C(=O)N[C@H]1CCCNC1`: the results for the EC50 in assay [1] and in assay [2] were 1400 nM and 190 nM, respectively.

With `NC(=O)Nc1cc(-c2cccc(F)c2F)sc1C(=O)N[C@H]1CCCNC1`, the figures for the EC50 in assay [1] and in assay [2] were 1500 nM and 60 nM, respectively.

On to `NC(=O)Nc1cc(-c2cc(F)cc(F)c2)sc1C(=O)N[C@H]1CCCNC1`, for which the EC50 in assay [1] was 2500 nM; in assay [2] it was 60 nM.

For the molecule `NC(=O)Nc1sc(-c2cc(F)cc(F)c2)cc1C(=O)N[C@H]1CCCNC1`, the EC50 in assay [1] came to 1500 nM; in assay [2] it was 30 nM.

Consider `NC(=O)Nc1cc(-c2cccc(Cl)c2)sc1C(=O)N[C@H]1CCCNC1`, for which the EC50 in assay [1] turned out to be 700 nM; in assay [2], 10 nM.

Consider `NC(=O)Nc1cc(-c2ccc(F)cc2)sc1C(=O)N[C@H]1CCCNC1`, for which the figures for the EC50 in assay [1] and in assay [2] were 13000 nM and 20 nM, respectively.

For the molecule `NC(=O)Nc1cc(-c2ccccc2F)sc1C(=O)N[C@H]1CCCNC1`, the EC50 was 2200 nM in assay [1] and 20 nM in assay [2].

In the case of `NC(=O)Nc1cc(-c2ccccc2)sc1C(=O)N[C@H]1CCCNC1`, the EC50 is 590 nM in assay [1] and 20 nM in assay [2].

Regarding `NC(=O)Nc1sc(-c2cccc(F)c2F)cc1C(=O)N[C@H]1CCCNC1`, the EC50 in assay [1] was found to be 1800 nM; in assay [2] it was 100 nM.

As to `NC(=O)Nc1sc(-c2ccccc2F)cc1C(=O)N[C@H]1CCCNC1` [1-(3-((S)-piperidin-3-ylcarbamoyl)-5-(2-fluorophenyl)thiophen-2-yl)urea], the EC50 in assay [1] was found to be 1060 nM; in assay [2], 80 nM.

Turning to `NC(=O)Nc1sc(-c2cccc(Cl)c2)cc1C(=O)N[C@H]1CCCNC1` [1-(3-((S)-piperidin-3-ylcarbamoyl)-5-(3-chlorophenyl)thiophen-2-yl)urea], the values for the concentration giving a half-maximal response (EC50) in assay [1] and in assay [2] were 1200 nM and 40 nM, respectively.

Turning to `NC(=O)Nc1sc(-c2cccc(F)c2)cc1C(=O)N[C@H]1CCCNC1` [1-(3-((S)-piperidin-3-ylcarbamoyl)-5-(3-fluorophenyl)thiophen-2-yl)urea], the figures for the EC50 in assay [1] and in assay [2] were 840 nM and 20 nM, respectively.

For `N#Cc1ccc(-c2cc(C(=O)N[C@H]3CCCNC3)c(NC(N)=O)s2)cc1` [(S)-1-(5-(4-cyanophenyl)-3-(piperidin-3-ylcarbamoyl)thiophen-2-yl)urea], the concentration giving a half-maximal response (EC50) in assay [1] stood at 1700 nM; in assay [2], 8 nM.

Regarding `NC(=O)Nc1sc(-c2ccc(F)cc2)cc1C(=O)N[C@H]1CCCNC1` [(S)-1-(5-(4-fluorophenyl)-3-(piperidin-3-ylcarbamoyl)thiophen-2-yl)urea], the EC50 in assay [1] was found to be 600 nM; in assay [2] it was 30 nM.
